Assay results published in PubChem BioAssay AID2060503 (Molecular Pharmacology Branch, DTP, NCI, 2025).

Tested on: 817829-284-R-J1-PDC complex spheroids, viability
Assay: Anticancer human tumor 817829-284-R-J1-PDC patient-derived colon adenocarcinoma cell line growth inhibition [GQUAD]
Conditions: for IC50: curve of first compound; for viability, T/C: stronger effect = lower value
Source text: DNA G-quadruplex Stabilizer Agents in Combinations in Complex Spheroids
A high-throughput screen of multi-cell type tumor spheroids was designed to identify active combinations of DNA G-quadruplex stabilizer agents and targeted small molecules. Complex spheroids include a stromal component modeled by human endothelial cells (HUVEC) and fibroblasts modeled by human mesenchymal stem cells (MSCs). The concentration ranges selected for each drug and investigational agent were based upon clinically achievable concentrations if the clinical Cmax of the agent was known.
Compounds. The drugs and investigational agents: pidnarulex (CX-5461; NSC782164), APTO-253 (NSC789042), BRACO-19 (NSC847499), peposertib (NSC802822), ceralasertib (NSC780249), elimusertib (NSC800525), camonsertib (NSC841442), AZD-1390 (NSC803789), olaparib (NSC753686), talazoparib (NSC767125), ART-558 (NSC835418), sotorasib (NSC818433), MRTX-1133 (NSC836407), SN-38 (NSC673596), topotecan (NSC609699), etoposide (NSC141540), doxorubicin (NSC123127), gemcitabine (NSC613327), 5-fluorouracil (NSC19893), paclitaxel (NSC125973), vemurafenib (NSC761431), panobinostat (NSC761190), R-306465 (JNJ-16241199; NSC773264), adavosertib (NSC754352), TP-3654 (NSC805149), carboplatin (NSC241240), KSQ-4279 (NSC840948), and staurosporine (NSC755774) were obtained from the National Cancer Institute (NCI) Developmental Therapeutics Program Chemical Repository (34). The FDA-approved anticancer drug set is available from the NCI Developmental Therapeutics Program. […] The stock solutions were prepared in dimethyl sulfoxide (DMSO, Sigma-Aldrich, St. Louis, MO, cat. D2650) at 800-fold the tested concentration and stored at -70 degrees C prior to their use. All drugs and investigational agents were tested over a range starting from a high concentration at or near the clinical Cmax and decreasing in half-log increments. If the clinical Cmax for an agent had not been determined, the highest concentration tested was 10 microM.
2.3 Cell Culture. All cells were maintained in an incubator at 37 degrees C and 5% CO2 with 95% humidity. The PDC lines were cultured according to standard operating procedures established by the NCI PDMR. All PDCs were thawed and cultured in Matrigel-coated flasks prepared with a working solution of 1X Ham's F-12 nutrient mix, without supplementation (Invitrogen, cat. 11765054), 100 U/mL penicillin-streptomycin (Invitrogen, cat. 15140122), and 2.5% Matrigel (Corning Inc., cat. 354248) for the first three passages. The 857933-349-R-J2-PDC line was cultured in 6C/Colon 1B media, which includes advanced DMEM/F-12 (Thermo Fisher Scientific, cat. 12634028), 10 mM HEPES (Thermo Fisher Scientific, cat. 15630080), 1X GlutaMAX supplement (Thermo Fisher Scientific, cat. 35050061), 0.1 mg/mL primocin (InvivoGen, cat. ant-pm-2), 10% defined fetal bovine serum, heat inactivated (HyClone Laboratories Inc., cat. SH30070.03HI), 50% L-WRN conditioned media (ATCC, cat. CRL-3276), 1.25 mM N-Acetyl-L-cysteine (Sigma-Aldrich, cat. A9165), 10 mM nicotinamide (Sigma-Aldrich, cat. N0636), 1X B-27 supplement (Thermo Fisher Scientific, cat. 17504044), 1X N-2 supplement (Thermo Fisher Scientific, cat. 17502048), 10 microM Y-27632 dihydrochloride (Tocris Bioscience, cat. 1254), and 50 ng/mL human EGF recombinant protein (Thermo Fisher Scientific, cat. PHG0311). The 485176-168-R4-J1-PDC line was cultured in Panc media, which includes all 6C/Colon 1B media components plus 100 ng/mL human FGF-10 (Thermo Fisher Scientific, cat. 100-26), 500 nM SB-431542 (Selleckchem, cat. S1067), and gastrin (Tocris, cat. 3006).
[…]

[1] = second compound 0.0316 µM, first compound 0.0316 µM
[2] = second compound 0.0316 µM, first compound 0.1 µM
[3] = second compound 0.0316 µM, first compound 0.316 µM
[4] = second compound 0.0316 µM, first compound 1 µM
[5] = second compound 0.0316 µM, first compound 3.16 µM
[6] = second compound 0.0316 µM, first compound 10 µM
[7] = second compound 0.1 µM, first compound 0.0316 µM
[8] = second compound 0.1 µM, first compound 0.1 µM
[9] = second compound 0.1 µM, first compound 0.316 µM
[10] = second compound 0.1 µM, first compound 1 µM
[11] = second compound 0.1 µM, first compound 3.16 µM
[12] = second compound 0.1 µM, first compound 10 µM
[13] = second compound 0.316 µM, first compound 0.0316 µM
[14] = second compound 0.316 µM, first compound 0.1 µM
[15] = second compound 0.316 µM, first compound 0.316 µM
[16] = second compound 0.316 µM, first compound 1 µM
[17] = second compound 0.316 µM, first compound 3.16 µM
[18] = second compound 0.316 µM, first compound 10 µM
[19] = second compound 1 µM, first compound 0.0316 µM
[20] = second compound 1 µM, first compound 0.1 µM
[21] = second compound 1 µM, first compound 0.316 µM
[22] = second compound 1 µM, first compound 1 µM
[23] = second compound 1 µM, first compound 3.16 µM
[24] = second compound 1 µM, first compound 10 µM
[25] = second compound 3.16 µM, first compound 0.0316 µM
[26] = second compound 3.16 µM, first compound 0.1 µM
[27] = second compound 3.16 µM, first compound 0.316 µM
[28] = second compound 3.16 µM, first compound 1 µM
[29] = second compound 3.16 µM, first compound 3.16 µM
[30] = second compound 3.16 µM, first compound 10 µM
[31] = second compound 10 µM, first compound 0.0316 µM
[32] = second compound 10 µM, first compound 0.1 µM
[33] = second compound 10 µM, first compound 0.316 µM
[34] = second compound 10 µM, first compound 1 µM
[35] = second compound 10 µM, first compound 3.16 µM
[36] = second compound 10 µM, first compound 10 µM
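Also: spheroids exposed to agents for 7 days before readout.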
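For viability, T/C in this document: percent viability relative to DMSO vehicle control taken as 100%.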

## CC1COCCN1c1cc(C2(S(C)(=N)=O)CC2)nc(-c2ccnc3[nH]ccc23)n1 (stereo unspecified) + CN(C)c1ccc(Nc2c3ccc(NC(=O)CCN4CCCC4)cc3nc3cc(NC(=O)CCN4CCCC4)ccc23)cc1
Second compound 0.0316 µM
  IC50: 0.584 µM
Second compound 0.1 µM
  IC50: 0.616 µM
Second compound 0.316 µM
  IC50: 0.589 µM
Second compound 1 µM
  IC50: 0.566 µM
Second compound 3.16 µM
  IC50: 0.569 µM
Second compound 10 µM
  IC50: 0.391 µM
[1]
  viability, T/C: 94.2%
[2]
  viability, T/C: 93.2%
[3]
  viability, T/C: 75.4%
[4]
  viability, T/C: 27.5%
[5]
  viability, T/C: 11.2%
[6]
  viability, T/C: 7.5%
[7]
  viability, T/C: 90.1%
[8]
  viability, T/C: 95.4%
[9]
  viability, T/C: 82.3%
[10]
  viability, T/C: 26.4%
[11]
  viability, T/C: 11.1%
[12]
  viability, T/C: 7.72%
[13]
  viability, T/C: 99%
[14]
  viability, T/C: 96.5%
[15]
  viability, T/C: 79.8%
[16]
  viability, T/C: 24.7%
[17]
  viability, T/C: 9.67%
[18]
  viability, T/C: 7.15%
[19]
  viability, T/C: 86%
[20]
  viability, T/C: 98.5%
[21]
  viability, T/C: 76%
[22]
  viability, T/C: 24.1%
[23]
  viability, T/C: 10.8%
[24]
  viability, T/C: 7.23%
[25]
  viability, T/C: 91.4%
[26]
  viability, T/C: 94.9%
[27]
  viability, T/C: 70.1%
[28]
  viability, T/C: 29.9%
[29]
  viability, T/C: 13%
[30]
  viability, T/C: 7.64%
[31]
  viability, T/C: 99.6%
[32]
  viability, T/C: 87.9%
[33]
  viability, T/C: 57.1%
[34]
  viability, T/C: 20.3%
[35]
  viability, T/C: 9.51%
[36]
  viability, T/C: 5%

## COc1ccc([C@@H](O)c2cc(-c3ncnc4cc(N5CCOCC5)ccc34)c(F)cc2Cl)nn1 + CN(C)c1ccc(Nc2c3ccc(NC(=O)CCN4CCCC4)cc3nc3cc(NC(=O)CCN4CCCC4)ccc23)cc1
Second compound 0.0316 µM
  IC50: > 10 µM
Second compound 0.1 µM
  IC50: > 10 µM
Second compound 0.316 µM
  IC50: > 10 µM
Second compound 1 µM
  IC50: 8.58 µM
Second compound 3.16 µM
  IC50: 2.95 µM
Second compound 10 µM
  IC50: 1.14 µM
[1]
  viability, T/C: 104%
[2]
  viability, T/C: 98.7%
[3]
  viability, T/C: 103%
[4]
  viability, T/C: 85.5%
[5]
  viability, T/C: 88%
[6]
  viability, T/C: 58.1%
[7]
  viability, T/C: 86.8%
[8]
  viability, T/C: 100%
[9]
  viability, T/C: 94.4%
[10]
  viability, T/C: 94.7%
[11]
  viability, T/C: 63.5%
[12]
  viability, T/C: 54.7%
[13]
  viability, T/C: 92.2%
[14]
  viability, T/C: 107%
[15]
  viability, T/C: 115%
[16]
  viability, T/C: 95.5%
[17]
  viability, T/C: 76%
[18]
  viability, T/C: 56.3%
[19]
  viability, T/C: 88.9%
[20]
  viability, T/C: 106%
[21]
  viability, T/C: 98%
[22]
  viability, T/C: 86.5%
[23]
  viability, T/C: 68.8%
[24]
  viability, T/C: 47%
[25]
  viability, T/C: 93.6%
[26]
  viability, T/C: 96.3%
[27]
  viability, T/C: 96.9%
[28]
  viability, T/C: 73.9%
[29]
  viability, T/C: 50.1%
[30]
  viability, T/C: 33.4%
[31]
  viability, T/C: 107%
[32]
  viability, T/C: 85.9%
[33]
  viability, T/C: 85.7%
[34]
  viability, T/C: 47.5%
[35]
  viability, T/C: 31.3%
[36]
  viability, T/C: 13.5%

## O=C(c1cc(Cc2n[nH]c(=O)c3ccccc23)ccc1F)N1CCN(C(=O)C2CC2)CC1 + CN(C)c1ccc(Nc2c3ccc(NC(=O)CCN4CCCC4)cc3nc3cc(NC(=O)CCN4CCCC4)ccc23)cc1
Second compound 0.0316 µM
  IC50: > 10 µM
Second compound 0.1 µM
  IC50: > 10 µM
Second compound 0.316 µM
  IC50: > 10 µM
Second compound 1 µM
  IC50: > 10 µM
Second compound 3.16 µM
  IC50: > 10 µM
Second compound 10 µM
  IC50: > 10 µM
[1]
  viability, T/C: 108%
[2]
  viability, T/C: 97.8%
[3]
  viability, T/C: 102%
[4]
  viability, T/C: 90.7%
[5]
  viability, T/C: 78.8%
[6]
  viability, T/C: 58.3%
[7]
  viability, T/C: 101%
[8]
  viability, T/C: 107%
[9]
  viability, T/C: 108%
[10]
  viability, T/C: 98.6%
[11]
  viability, T/C: 100%
[12]
  viability, T/C: 60.2%
[13]
  viability, T/C: 102%
[14]
  viability, T/C: 97.6%
[15]
  viability, T/C: 107%
[16]
  viability, T/C: 93%
[17]
  viability, T/C: 95.2%
[18]
  viability, T/C: 66.8%
[19]
  viability, T/C: 107%
[20]
  viability, T/C: 96.7%
[21]
  viability, T/C: 99%
[22]
  viability, T/C: 93.7%
[23]
  viability, T/C: 93.7%
[24]
  viability, T/C: 62.5%
[25]
  viability, T/C: 100%
[26]
  viability, T/C: 103%
[27]
  viability, T/C: 94.1%
[28]
  viability, T/C: 99.5%
[29]
  viability, T/C: 94.9%
[30]
  viability, T/C: 58.3%
[31]
  viability, T/C: 97.4%
[32]
  viability, T/C: 102%
[33]
  viability, T/C: 94.5%
[34]
  viability, T/C: 88.4%
[35]
  viability, T/C: 70.7%
[36]
  viability, T/C: 52.5%
